Results from US20190127354A1, “2,4,6,7-TETRASUBSTITUTED QUINOLINE COMPOUNDS AS INHIBITORS OF DNA […]” (FUNDACIÓN PARA LA INVESTIGACIÓN MÉDICA APLICADA, priority 2015, published 2019).

How the values were obtained:
human DNMT1 = molecular target: T1, human DNMT1 (Homo sapiens, UniProt P26358); test: DNMT1 enzyme activity assay (TR-FRET, EPIgeneous methyltransferase assay); type: biochemical; settings: human DNMT1, 15 minutes at 37° C.
T1 construct: purchased Reaction Biology Corp. DMT-21-124
Description: DNMT1 Enzyme Activity Assay
The biochemical assay to measure DNMT1 enzyme activity relies on time-resolved fluorescence energy transfer (TR-FRET) between lumi4-Tb (donor) and d2 (acceptor) using the EPIgeneous methyltransferase assay (CisBio Cat#62SAHPEB). […] TR-FRET signal is inversely proportional to the concentration of SAH, product of DNMT1 enzyme activity, in the sample. The human DNMT1 was obtained from Reaction Biology Corp. (Cat# DMT-21-124).
Enzyme activity assay was carried out in a white 384-well plate in a final volume of 20 μl, as follow: • 4 μl of vehicle or studied compound 2.5× concentrated prepared in assay buffer (50 mM Tris-HCl, 1 mM EDTA, 1 mM DTT, 0.1% Triton X-100, 5% glycerol pH 7.5). Final percentage of DMSO was 0.5%. • 2 μl of 1 nM DNMT1 enzyme diluted in assay buffer.
(§1) For each well, fluorescence was measured at 620 nm and 665 nm. A ratio (665 nm/620 nm) was then calculated in order to minimize medium interferences. Positive control was obtained in the presence of the vehicle of the compounds. Calculated IC50 values were determined using GraphPrism using 4-parameters inhibition curve.

human G9a enzyme = molecular target: T2, human G9a enzyme (Homo sapiens, UniProt Q96KQ7); test: G9a enzyme activity assay (TR-FRET); type: biochemical; settings: 1 hour at room temperature
T2 construct: purchased BPS Biosciences 51001; host or cells: baculovirus infected Sf9 cells
T2 sequence (Q96KQ7 1-1210): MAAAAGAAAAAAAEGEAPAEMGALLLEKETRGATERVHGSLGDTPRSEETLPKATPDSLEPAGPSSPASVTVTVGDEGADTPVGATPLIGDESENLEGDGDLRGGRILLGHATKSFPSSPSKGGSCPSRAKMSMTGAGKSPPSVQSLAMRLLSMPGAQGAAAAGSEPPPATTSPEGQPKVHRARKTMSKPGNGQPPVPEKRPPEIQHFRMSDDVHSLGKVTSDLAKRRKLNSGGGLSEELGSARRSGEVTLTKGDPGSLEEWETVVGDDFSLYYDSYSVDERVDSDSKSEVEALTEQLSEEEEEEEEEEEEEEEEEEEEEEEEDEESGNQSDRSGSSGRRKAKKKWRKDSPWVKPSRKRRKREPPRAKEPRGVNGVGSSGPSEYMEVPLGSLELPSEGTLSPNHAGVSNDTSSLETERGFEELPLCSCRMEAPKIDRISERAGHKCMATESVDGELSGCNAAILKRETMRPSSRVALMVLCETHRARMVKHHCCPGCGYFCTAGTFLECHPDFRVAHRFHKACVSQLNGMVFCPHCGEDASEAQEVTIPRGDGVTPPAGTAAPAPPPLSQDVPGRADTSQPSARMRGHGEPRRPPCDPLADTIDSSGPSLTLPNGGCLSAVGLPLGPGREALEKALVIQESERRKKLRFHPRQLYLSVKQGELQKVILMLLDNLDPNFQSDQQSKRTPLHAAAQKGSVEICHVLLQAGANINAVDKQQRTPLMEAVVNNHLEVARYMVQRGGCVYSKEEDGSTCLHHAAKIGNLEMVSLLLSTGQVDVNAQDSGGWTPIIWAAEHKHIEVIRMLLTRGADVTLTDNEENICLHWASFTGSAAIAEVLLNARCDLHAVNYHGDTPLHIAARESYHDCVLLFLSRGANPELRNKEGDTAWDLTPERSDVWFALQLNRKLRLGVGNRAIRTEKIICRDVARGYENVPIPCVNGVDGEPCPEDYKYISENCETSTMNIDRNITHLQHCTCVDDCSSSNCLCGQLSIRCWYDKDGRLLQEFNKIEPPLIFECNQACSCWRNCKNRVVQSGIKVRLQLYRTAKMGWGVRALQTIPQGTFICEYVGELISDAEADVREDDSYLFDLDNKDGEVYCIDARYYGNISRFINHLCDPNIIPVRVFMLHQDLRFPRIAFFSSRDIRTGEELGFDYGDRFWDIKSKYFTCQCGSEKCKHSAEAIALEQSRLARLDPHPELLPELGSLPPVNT
Description: G9a Enzyme Activity Assay
The biochemical assay to measure G9a enzyme activity relies on time-resolved fluorescence energy transfer (TR-FRET) between europium cryptate (donor) and XL665 (acceptor). […] The human G9a enzyme expressed in a baculovirus infected Sf9 cell expression system was obtained from BPS Biosciences (Cat. #51001). Enzyme activity assay was carried out in a white 384-well plate in a final volume of 20 μl, as follow: • 4 μl of vehicle or studied compound 2.5× concentrated prepared in assay buffer (50 mM Tris-HCl, 10 mM NaCl, 4 mM DTT, 0.01% Tween-20 pH9). Final percentage of DMSO was 0.5%. • 2 μl of 1 nM G9a enzyme diluted in assay buffer. […] Final concentration 150 nM. • Then, add 5 μl of streptavidin XL665 beads. Final concentration of 16 μM. • Read the plate after 1 hour of incubation at room temperature.
as §1, with “compounds. Negative control was obtained in the absence of G9a enzyme activity.” for “compounds.”

T1 sequence (P26358 whole entry): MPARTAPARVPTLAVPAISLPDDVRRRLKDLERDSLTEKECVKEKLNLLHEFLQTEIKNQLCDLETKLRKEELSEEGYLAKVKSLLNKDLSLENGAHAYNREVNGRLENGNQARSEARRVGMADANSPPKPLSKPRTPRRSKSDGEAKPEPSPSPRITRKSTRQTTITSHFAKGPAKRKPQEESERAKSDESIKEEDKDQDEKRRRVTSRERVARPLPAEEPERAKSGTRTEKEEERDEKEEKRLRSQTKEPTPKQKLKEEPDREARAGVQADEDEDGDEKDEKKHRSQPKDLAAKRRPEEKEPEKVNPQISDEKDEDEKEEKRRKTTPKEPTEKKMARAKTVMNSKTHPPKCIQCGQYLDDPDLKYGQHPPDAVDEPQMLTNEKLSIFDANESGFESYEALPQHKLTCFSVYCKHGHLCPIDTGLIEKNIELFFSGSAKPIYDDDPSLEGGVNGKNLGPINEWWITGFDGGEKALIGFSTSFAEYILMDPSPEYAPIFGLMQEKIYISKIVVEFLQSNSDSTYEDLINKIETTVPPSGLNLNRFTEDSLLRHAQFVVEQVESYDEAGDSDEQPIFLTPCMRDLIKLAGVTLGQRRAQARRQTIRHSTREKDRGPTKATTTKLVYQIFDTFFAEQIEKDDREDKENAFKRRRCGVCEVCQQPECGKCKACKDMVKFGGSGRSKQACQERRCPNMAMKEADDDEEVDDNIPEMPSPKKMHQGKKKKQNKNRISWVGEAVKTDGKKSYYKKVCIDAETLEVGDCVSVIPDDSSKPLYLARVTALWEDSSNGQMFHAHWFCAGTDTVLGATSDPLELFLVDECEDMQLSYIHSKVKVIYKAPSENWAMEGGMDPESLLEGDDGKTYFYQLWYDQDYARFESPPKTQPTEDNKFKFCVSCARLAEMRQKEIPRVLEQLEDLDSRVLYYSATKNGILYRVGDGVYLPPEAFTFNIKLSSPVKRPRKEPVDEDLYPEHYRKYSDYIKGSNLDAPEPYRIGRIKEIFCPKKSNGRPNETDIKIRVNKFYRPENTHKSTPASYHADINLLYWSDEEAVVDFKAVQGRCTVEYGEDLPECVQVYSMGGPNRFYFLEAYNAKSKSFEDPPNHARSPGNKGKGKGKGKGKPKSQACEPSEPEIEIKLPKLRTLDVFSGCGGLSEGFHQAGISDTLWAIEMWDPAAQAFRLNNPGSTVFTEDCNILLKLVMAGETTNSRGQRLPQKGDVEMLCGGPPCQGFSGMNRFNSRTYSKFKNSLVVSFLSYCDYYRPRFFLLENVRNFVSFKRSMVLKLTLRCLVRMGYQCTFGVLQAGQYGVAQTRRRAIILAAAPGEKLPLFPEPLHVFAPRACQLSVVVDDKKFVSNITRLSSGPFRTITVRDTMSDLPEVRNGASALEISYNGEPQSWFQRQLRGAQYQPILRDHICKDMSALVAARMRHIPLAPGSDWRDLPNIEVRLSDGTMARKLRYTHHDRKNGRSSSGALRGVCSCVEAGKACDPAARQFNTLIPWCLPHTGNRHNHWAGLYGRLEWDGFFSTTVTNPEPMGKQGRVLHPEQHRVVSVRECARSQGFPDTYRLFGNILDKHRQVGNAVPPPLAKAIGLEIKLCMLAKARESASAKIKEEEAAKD

COc1cc2c(N(C)C3CCN(C)CC3)cc(-c3cc(C)oc3C)nc2cc1OCCCN1CCCC1 [Compound 1-05]
IC50 (human DNMT1): 1 to 10 µM
IC50 (human G9a enzyme): 1 to 10 µM

COc1cc2c(N(C)CC3CCN(C)CC3)cc(-c3ccc(C)[nH]3)nc2cc1OCCCN1CCCC1 [Compound 1-06]
IC50 (human DNMT1): 0.1 to 0.5 µM
IC50 (human G9a enzyme): 0.1 to 0.5 µM

COc1cc2c(N(C)C3CCN(C)CC3)cc(-c3ccc(C)[nH]3)nc2cc1OCCCN1CCCC1 [Compound 1-07]
IC50 (human DNMT1): 0.5 to 1 µM
IC50 (human G9a enzyme): < 0.1 µM

COc1cc2c(N(C)C3CC4(CCN(C)CC4)C3)cc(-c3ccc(C)o3)nc2cc1OCC1CCN(C)CC1 [Compound 1-08, 6-methoxy-N-methyl-N-(7-methyl-7-azaspiro[3.5]nonan-2-yl)-2-(5-methyl-2-furyl)-7-[(1-methyl-4-piperidyl)methoxy]quinolin-4-amine]
IC50 (human DNMT1): 1 to 10 µM
IC50 (human G9a enzyme): > 10 µM

COc1cc2c(N(C)C3CC4(CCN(C(C)C)CC4)C3)cc(-c3ccc(C)o3)nc2cc1OCCCN1CCCC1 [Compound 1-09]
IC50 (human DNMT1): 0.5 to 1 µM
IC50 (human G9a enzyme): 0.5 to 1 µM

CCc1ccc(-c2cc(N(C)CC3CCN(C)CC3)c3cc(OC)c(OC4CC5(C4)CN(C)C5)cc3n2)o1 [Compound 1-10]
IC50 (human DNMT1): 1 to 10 µM
IC50 (human G9a enzyme): > 10 µM

COc1cc2c(N(C)C)cc(-c3ccc(C)[nH]3)nc2cc1OCCCN1CCCC1 [Compound 1-11]
IC50 (human DNMT1): 1 to 10 µM
IC50 (human G9a enzyme): 0.1 to 0.5 µM

COc1cc2c(N(C)C)cc(-c3ccc(C)o3)nc2cc1OCCCN1CCCC1 [Compound 1-12]
IC50 (human DNMT1): 1 to 10 µM
IC50 (human G9a enzyme): 1 to 10 µM

COc1cc2c(N(C)C3CC4(CCN(C(C)C)CC4)C3)cc(-c3ccc(C)o3)nc2cc1OC1CC2(C1)CN(C)C2 (stereo not drawn) [Compound 1-14]
IC50 (human DNMT1): 1 to 10 µM
IC50 (human G9a enzyme): > 10 µM

COc1cc2c(N(C)C3CC4(CCN(C(C)C)CC4)C3)cc(-c3ccc(C)o3)nc2cc1OC1CC2(C1)CN(CC#N)C2 (stereo not drawn) [Compound 1-15]
IC50 (human DNMT1): 1 to 10 µM
IC50 (human G9a enzyme): > 10 µM

CCc1ccc(-c2cc(N(C)CC3CCN(C)CC3)c3cc(OC)c(OCC4CCN(C)CC4)cc3n2)o1 [Compound 1-16]
IC50 (human DNMT1): 1 to 10 µM
IC50 (human G9a enzyme): > 10 µM

COc1cc2c(N(C)C3CCC4(CC3)CN(C)C4)cc(-c3ccc(C)o3)nc2cc1OCCCN1CCCC1 [Compound 1-18]
IC50 (human DNMT1): 1 to 10 µM
IC50 (human G9a enzyme): 1 to 10 µM

COc1cc2c(N(C)CC3CCN(C)CC3)cc(-c3cc(C)oc3C)nc2cc1OCCCN1CCCC1 [Compound 1-19]
IC50 (human DNMT1): 0.5 to 1 µM
IC50 (human G9a enzyme): 0.5 to 1 µM

COc1cc2c(N(C)CC3CCN(C)CC3)cc(-c3ccc(C)o3)nc2cc1OCCCN1CCC(F)C1 (stereo not drawn) [Compound 1-20]
IC50 (human DNMT1): 1 to 10 µM
IC50 (human G9a enzyme): > 10 µM

COc1cc2c(N(C)CC3CCN(C)CC3)cc(C3CCCCC3)nc2cc1OCCCN1CCCC1 [Compound 1-21, 2-cyclohexyl-6-methoxy-N-methyl-N-[(1-methyl-4-piperidyl)methyl]-7-(3-pyrrolidin-1-ylpropoxy)quinolin-4-amine]
IC50 (human DNMT1): 1 to 10 µM
IC50 (human G9a enzyme): 0.1 to 0.5 µM

COc1cc2c(N(C)CC3CCN(C)CC3)cc(-c3ccccc3)nc2cc1OCCCN1CCCC1 [Compound 1-22]
IC50 (human DNMT1): 0.5 to 1 µM
IC50 (human G9a enzyme): 1 to 10 µM

COc1cc2c(N(C)CC3CCNCC3)cc(-c3ccccc3)nc2cc1OCCCN1CCCC1 [Compound 1-23, 6-methoxy-N-methyl-2-phenyl-N-(4-piperidylmethyl)-7-(3-pyrrolidin-1-ylpropoxy)quinolin-4-amine]
IC50 (human DNMT1): 0.5 to 1 µM
IC50 (human G9a enzyme): 0.1 to 0.5 µM

CNC1CCN(c2cc(-c3ccc(C)o3)nc3cc(OCCCN4CCCC4)c(OC)cc23)CC1 [Compound 2-01, 1-[6-methoxy-2-(5-methyl-2-furyl)-7-(3-pyrrolidin-1-ylpropoxy)-4-quinolyl]-N-methyl-piperidin-4-amine]
IC50 (human DNMT1): 0.5 to 1 µM
IC50 (human G9a enzyme): 1 to 10 µM

COc1cc2c(N3CCC(CO)CC3)cc(-c3ccc(C)o3)nc2cc1OCCCN1CCCC1 [Compound 2-02]
IC50 (human DNMT1): 1 to 10 µM
IC50 (human G9a enzyme): 1 to 10 µM

CNC1CCN(c2cc(-c3ccc(C)[nH]3)nc3cc(OCCCN4CCCC4)c(OC)cc23)CC1 [Compound 2-03]
IC50 (human DNMT1): 0.5 to 1 µM
IC50 (human G9a enzyme): 0.1 to 0.5 µM

CNC1CCN(c2cc(-c3ccc4occc4c3)nc3cc(OCCCN4CCCC4)c(OC)cc23)CC1 [Compound 2-04]
IC50 (human DNMT1): 1 to 10 µM
IC50 (human G9a enzyme): > 10 µM

COc1cc2c(N3CCC(N(C)C)CC3)cc(-c3ccc(C)[nH]3)nc2cc1OCCCN1CCCC1 [Compound 2-05, 1-[6-methoxy-2-(5-methyl-1H-pyrrol-2-yl)-7-(3-pyrrolidin-1-ylpropoxy)-4-quinolyl]-N,N-dimethyl-piperidin-4-amine]
IC50 (human DNMT1): 0.1 to 0.5 µM
IC50 (human G9a enzyme): 0.1 to 0.5 µM

COc1cc2c(N3CCC(C(C)(C)N)CC3)cc(-c3ccc(C)o3)nc2cc1OCCCN1CCCC1 [Compound 2-07]
IC50 (human DNMT1): 1 to 10 µM
IC50 (human G9a enzyme): 0.5 to 1 µM

CNCC1CCN(c2cc(C3CCCCC3)nc3cc(OCCCN4CCCC4)c(OC)cc23)CC1 [Compound 2-08, 1-[1-[2-cyclohexyl-6-methoxy-7-(3-pyrrolidin-1-ylpropoxy)-4-quinolyl]-4-piperidyl]-N-methyl-methanamine]
IC50 (human DNMT1): 1 to 10 µM
IC50 (human G9a enzyme): < 0.1 µM

CNCC1CCN(c2cc(-c3ccccc3)nc3cc(OCCCN4CCCC4)c(OC)cc23)CC1 [Compound 2-09]
IC50 (human DNMT1): 1 to 10 µM
IC50 (human G9a enzyme): 0.1 to 0.5 µM

COc1cc2c(OCC3CCN(C)CC3)cc(-c3ccc(C)o3)nc2cc1OCCCN1CCCC1 [Compound 3-02]
IC50 (human DNMT1): 0.5 to 1 µM
IC50 (human G9a enzyme): 1 to 10 µM

COc1cc2c(OCC3CCN(C)CC3)cc(-c3ccc(C)[nH]3)nc2cc1OCCCN1CCCC1 [Compound 3-03]
IC50 (human DNMT1): 0.5 to 1 µM
IC50 (human G9a enzyme): 0.1 to 0.5 µM

COc1cc2c(OC3CCN(C)CC3)cc(-c3ccc(C)o3)nc2cc1OC1CC2(C1)CN(C)C2 [Compound 3-06, 6-methoxy-7-[(2-methyl-2-azaspiro[3.3]heptan-6-yl)oxy]-2-(5-methyl-2-furyl)-4-[(1-methyl-4-piperidyl)oxy]quinoline]
IC50 (human DNMT1): 1 to 10 µM
IC50 (human G9a enzyme): > 10 µM

COc1cc2c(C3CCN(C)CC3)cc(-c3ccc(C)o3)nc2cc1OCCCN1CCCC1 [Compound 4-02, 6-methoxy-2-(5-methyl-2-furyl)-4-(1-methyl-4-piperidyl)-7-(3-pyrrolidin-1-ylpropoxy)quinoline]
IC50 (human DNMT1): 1 to 10 µM
IC50 (human G9a enzyme): 1 to 10 µM

COc1cc2c(C=C3CCN(C)CC3)cc(-c3ccc(C)o3)nc2cc1OCCCN1CCCC1 [Compound 5-01, 6-methoxy-2-(5-methyl-2-furyl)-4-[(1-methyl-4-piperidylidene)methyl]-7-(3-pyrrolidin-1-ylpropoxy)quinoline]
IC50 (human DNMT1): 1 to 10 µM
IC50 (human G9a enzyme): > 10 µM
